Columns and labels:
in vivo = conditions: chimpanzee, po
Protocol: (§1) Four chimps (two male and two female) were used in this study and were fasted overnight prior to administration of the compound solution. Animals were sedated with ketamine and/or telazol prior to dosing. Intravenous dosing was achieved by IV infusion over 30 minutes.
(§2) Approximately 4.5 mL of blood was collected into vacutainer tubes with sodium heparin as an anticoagulant at 0 (preinfusion), 15 min., 29.5 min (immediately before the end of the infusion), and then at 6, 15, 30, and 45 minutes, and 1, 2, 4, 6, 8, 10, 12, 24 hours after the infusion is stopped. A similar procedure was used to collect blood after oral dosing with samples taken at 0 (predose), 15, and 30 minutes, and at 1, 1.5, 2, 4, 6, 8, 10, 12, 24 hours postdose. Following sample collection, the vacutainer tubes were rocked by hand several times to insure adequate mixing. Blood samples were placed immediately on wet ice and centrifuged within 1 hour from time of collection. Following centrifugation, the resulting plasma was stored frozen at −70° C. until analysis. The results are summarized in FIGS. 4 and 5 and tables 6 and 7.
Run B: Same as Run A, except the dose was 150 mg orally of each of atazanavir and compounds 114 and 120, and the vehicle was 10 percent ethanol, 40 percent polypropylglycol in 2.5 percent citric acid.

[1] = Chimp pharmacokinetics Run A, IV or PO co-dosing of atazanavir and Compounds 114, 120, 122; assay type: in vivo, chimpanzee; conditions: for concentration at 24 h: concentration detected intact in urine
Protocol: Chimp Pharmacokineties. Run A: A 4 mg/mL solution of atazanavir and each of Compounds 114, 120 and 122 were prepared in 10% DMI (dimethyl isosorbide), 15% EtOH, 35% PG in D5W. Specifically, for each compound, 240 mgs of compound was dissolved in a solution composed of 6 mL of DMI, 9 mL of EtOH and 21 mL PG. Once the compound was fully dissolved, 24 mL of D5W was added and the solution mixed.
Fifty-five mL of each drug solution is then combined and the mixture was sterile filtered using a 0.2 μm filter. This produced 220 mL of a 1:1:1:1 mixture atazanavir:Compound 114:Compound 120:Compound 122. The final concentration of each drug in the solution was 1 mg/mL. Each animal received 50 mL of this solution through either IV or PO routes.
as §1, §2

[2] = Microsomal assay: stability in human liver microsomes; assay type: in vitro ADME; conditions: human, liver microsomes, pH 7.4, human liver microsomes, repeated assay (Table 3); read-out: t1/2 (min) Avg ± SD (n = 3)
Protocol: Microsomal Assay. Human liver microsomes (20 mg/mL, pool of 50 individuals) were obtained from Xenotech LLC (Lenexa, Kans.). The incubation mixtures are prepared as follows. Stock solutions (10 mM) solutions of test Compounds 103, 106, 122 and of atazanavir were prepared in DMSO. The 10 mM stock solutions were diluted to 1 mM in acetonitrile (ACN). […] The microsome-test compound mixtures were added to wells of a 2 mL 96-well deep well polypropylene plate in triplicate. The plate was warmed to 37° C. before initiating the reactions by addition of prewarmed NADPH in 0.1 M potassium phosphate buffer, pH 7.4, containing 3 mM MgCl2. The final reaction mixture composition contained: • Liver Microsomes 0.5 mg/mL • NADPH 2 mM • Potassium Phosphate, pH 7.4 100 mM • Magnesium Chloride 3 mM • Test Compound 1.0 μM. The reaction mixtures were incubated at 37° C. and 50 μL aliquots were removed at 0, 3, 7, 12, 20, and 30 minutes and added to shallow-well 96-well plates which contained 50 μL of ice-cold ACN with internal standard to stop the reactions. The plates were stored at −20° C. for 30 minutes, after which 100 μL of water was added to the wells of the plate before centrifugation to pellet precipitated proteins. Supernatants were transferred to another 96-well plate and analyzed for amounts of parent remaining by LC-MS/MS using an Applied Biosystems API 4000 mass spectrometer. […] Data analysis was performed using Microsoft Excel Software. […] The results are shown in FIGS. 2 and 3 and in Table 3, below: […]

## [2H]C([2H])([2H])OC(=O)N[C@H](C(=O)N[C@@H](Cc1ccccc1)[C@@H](O)CN(Cc1ccc(-c2ccccn2)cc1)NC(=O)[C@@H](NC(=O)OC)C(C)(C)C)C(C([2H])([2H])[2H])(C([2H])([2H])[2H])C([2H])([2H])[2H] [Compound 114, 1-Methyl-14-(methyl-d3)(3S,8S,9S,12S)-3-(1,1-dimethylethyl)-12-[(1,1-dimethylethyl)-d9]-8-hydroxy-4,11-dioxo-9-(phenylmethyl)-6-[[4-(2-pyridinyl)phenyl]methyl]-2,5,6,10,13-pentaazatetradecanedioate]
In vivo; 24 h
  concentration detected intact in urine: 4580 ng/mL
In vivo; concentration detected intact in urine
  concentration at 24 h: 2530 ng/mL
[1]; chimp A242E, PO, 24 hours, Run A
  Ratio of urine concentration, compound:Atazanavir: 1.8
[1]; chimp A336C, IV, 24 hours, Run A
  Ratio of urine concentration, compound:Atazanavir: 1.5
[1]; chimpanzee, in vivo, iv, 24 h
  Ratio of urine concentration, compound:Atazanavir: 1.3
  concentration detected intact in urine: 2820 ng/mL
[1]; chimpanzee, in vivo, iv
  concentration at 24 h: 2750 ng/mL
[1]; chimpanzee, in vivo, po, 24 h
  Ratio of urine concentration, compound:Atazanavir: 1.8
  concentration detected intact in urine: 963 ng/mL
[1]; chimpanzee, in vivo, po
  concentration at 24 h: 1070 ng/mL
[2]
  half-life at 1 μM: 31.5 ± 0.8 min
